Data: patent publication US20140349970A1 (ABBVIE INC., priority 2009, published 2014)
pIC50: −log10 of the molar value.

Molecular target: T1, Syk catalytic domain (aa 356-635 with a C-terminal His-tag) (Homo sapiens, UniProt P43405)
T1 construct: His-tag (C); made in house
Experiment: In vitro Syk kinase activity measured by trFRET, Syk catalytic domain
Type: biochemical
Details: Syk catalytic domain (aa 356-635), trFRET, 0.001 mM ATP
In short: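 Kinase reaction: 0.14 nM His-tagged catalytic domain, 0.2 μM biotin-TYR1 peptide, 0.001 mM ATP in 50 mM MOPSO pH 6.5 with MgCl2, MnCl2, DTT, BSA, vanadate, ~60 min at rt, then EDTA quench. Phosphoproduct detected by trFRET (Eu anti-pTyr antibody/streptavidin-APC, 665 nm emission); IC50 from signal in linear range.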

Row | Compound | pIC50
1 | Cc1ccc(-c2cc3c(ncc4cnc(N(C)C)n43)[nH]2)cc1 [M.1.16] | 6.00 to 7.00
2 | COc1ccc2c(c1)c(-c1cc3c(ncc4cnc(N5CCCC5)n43)[nH]1)cn2C [M.1.17] | > 7.00
3 | Cc1ccc(-c2cc3c(ncc4cnc(N5CCCC5)n43)[nH]2)cc1 [M.1.18] | 6.00 to 7.00
4 | COc1ccc(-c2cc3c(ncc4nnc(C)n43)[nH]2)cc1 [M.1.19] | 5.00 to 6.00
5 | COc1ccc2c(c1)c(-c1cc3c(ncc4nccn43)[nH]1)cn2C [M.1.20] | 6.00 to 7.00
6 | COCCN(C)c1cnc2cnc3[nH]c(-c4cn(C)c5ccc(OC)cc45)cc3n12 [M.1.21] | > 7.00
7 | COc1ccc(-c2cc3c(ncc4c(C)nc(C)n43)[nH]2)cc1 [M.1.22] | 6.00 to 7.00
8 | COc1ccc(-c2cc3c(ncc4c(C)ncn43)[nH]2)cc1 [M.1.23] | 5.00 to 6.00
9 | CS(=O)(=O)c1ccc(-n2c(=O)n(C3CCCCC3)c3c4cc[nH]c4ncc32)cc1 [M.1.24] | < 5.00
10 | COc1ccc(-c2cc3c(ncc4cnc(C)n43)[nH]2)cc1 [M.1.25] | > 7.00
11 | Cc1ncc2cnc3[nH]c(-c4cnn(C)c4)cc3n12 [M.2.1] | 6.00 to 7.00
12 | COc1ccc(-c2nn(C)c3c2cnc2[nH]cc(C#N)c23)cc1 [M.2.3] | > 7.00
13 | Cc1nc(-c2ccc(C(C)(C)O)cc2)c2cnc3[nH]cc(C#N)c3n12 [M.2.4] | > 7.00
14 | CN1CCN(CCNC(=O)Cc2cccc(-c3cc4c(ncc5cnn(C)c54)[nH]3)c2)CC1 [N.1, 2-(3-(1-Methyl-1,6-dihydropyrazolo[3,4-d]pyrrolo[2,3-b]pyridin-7-yl)phenyl)-N-(2-(4-methylpiperazin-1-yl)ethyl)acetamide] | 5.00 to 6.00
15 | Cn1ncc2cnc3[nH]c(-c4ccc(C(C)(C)O)cc4)cc3c21 [N.1.1] | > 7.00
16 | CC(=O)NCc1cccc(-c2cc3c(ncc4cnn(C)c43)[nH]2)c1 [N.1.3] | > 7.00
17 | CNC(=O)c1cccc(-c2cc3c(ncc4cnn(C)c43)[nH]2)c1 [N.1.4] | > 7.00
18 | Cn1ncc2cnc3[nH]c(-c4cccc(C(=O)NCCN5CCOCC5)c4)cc3c21 [N.1.6] | > 7.00
19 | COCCCNC(=O)c1cccc(-c2cc3c(ncc4cnn(C)c43)[nH]2)c1 [N.1.7] | 6.00 to 7.00

Row | Compound | pIC50
20 | Cn1ncc2cnc3[nH]c(-c4cccc(C(=O)N5CCCC5)c4)cc3c21 [N.1.8] | 6.00 to 7.00
21 | CNC(=O)Cc1cccc(-c2cc3c(ncc4cnn(C)c43)[nH]2)c1 [N.1.9] | 6.00 to 7.00
22 | COCCCNC(=O)Cc1cccc(-c2cc3c(ncc4cnn(C)c43)[nH]2)c1 [N.1.11] | 6.00 to 7.00
23 | Cn1ncc2cnc3[nH]c(-c4cccc(CC(=O)NCCN5CCOCC5)c4)cc3c21 [N.1.12] | 6.00 to 7.00
24 | Cn1ncc2cnc3[nH]c(-c4cccc(S(N)(=O)=O)c4)cc3c21 [N.1.13] | > 7.00
25 | COc1ccc(-c2cc3c(ncc4cnn(C)c43)[nH]2)cc1 [N.1.14] | > 7.00
26 | CCc1c(-c2ccc3c(ccn3C)c2)[nH]c2ncc3cnn(C)c3c12 [N.1.15] | 5.00 to 6.00
27 | CCc1c(-c2cccc3c2ccn3C)[nH]c2ncc3cnn(C)c3c12 [N.1.16] | < 5.00
28 | Cn1cc(-c2cc3c(ncc4cnn(C)c43)[nH]2)c2cc(F)ccc21 [N.1.17] | > 7.00
29 | COc1ccc2[nH]cc(-c3cc4c(ncc5cnn(C)c54)[nH]3)c2c1 [N.1.19] | > 7.00
30 | CCc1c(-c2ccc(C(C)(C)O)cc2)[nH]c2ncc3cnn(C)c3c12 [N.1.20] | > 7.00
31 | CCc1c(-c2cccc(S(C)(=O)=O)c2)[nH]c2ncc3cnn(C)c3c12 [N.1.21] | 6.00 to 7.00
32 | COc1ccc2c(c1)c(-c1cc3c4c(cnc3[nH]1)CCN4C)cn2C [N.1.22] | 5.00 to 6.00
33 | CN1CCc2cnc3[nH]c(-c4ccc(C(C)(C)O)cc4)cc3c21 [N.1.23] | 5.00 to 6.00
34 | Cn1cc(-c2cc3c(ncc4cnn(C)c43)[nH]2)c2ccccc21 [N.1.24] | > 7.00
35 | COc1ccc2c(c1)c(-c1cc3c(ncc4cnn(C)c43)[nH]1)cn2CC(=O)N(C)C [N.1.25] | > 7.00
36 | COc1ccc2c(c1)c(-c1cc3c(ncc4cnn(C)c43)[nH]1)cn2CC(O)CO (stereo not shown) [N.1.26] | > 7.00
37 | Cn1ncc2cnc3[nH]c(-c4cnc5n4CCC5)cc3c21 [N.1.27] | 5.00 to 6.00
